Test results taken from US9469650B2, “Melampomagnolide B derivatives” (BOARD OF TRUSTEES OF THE UNIVERSITY OF ARKANSAS, priority 2013, dated 2016).

Experiments:
HOP-62 = test: panel of 60 human tumor cell lines, growth inhibition (Non-Small Cell Lung Cancer); settings: HOP-62
SF-295 = test: panel of 60 human tumor cell lines, growth inhibition (CNS Cancer); settings: SF-295
PC-3 = test: panel of 60 human tumor cell lines, growth inhibition (Prostate Cancer); settings: PC-3
LOX IMVI = test: panel of 60 human tumor cell lines, growth inhibition (Melanoma)
COLO 205 = test: panel of 60 human tumor cell lines, growth inhibition (Colon Cancer); settings: COLO 205
HS 578T = test: panel of 60 human tumor cell lines, growth inhibition (Breast Cancer); settings: HS 578T
A498 = test: panel of 60 human tumor cell lines, growth inhibition (Renal Cancer); settings: A498
NCI-H522 = test: panel of 60 human tumor cell lines, growth inhibition (Non-Small Cell Lung Cancer); settings: NCI-H522
M14 = test: panel of 60 human tumor cell lines, growth inhibition (Melanoma); settings: M14
CAKI-1 = test: panel of 60 human tumor cell lines, growth inhibition (Renal Cancer); settings: CAKI-1
NCI-H226 = test: panel of 60 human tumor cell lines, growth inhibition (Non-Small Cell Lung Cancer); settings: NCI-H226
K-562 = test: panel of 60 human tumor cell lines, growth inhibition (Leukemia); settings: K-562
OVCAR-5 = test: panel of 60 human tumor cell lines, growth inhibition (Ovarian Cancer); settings: OVCAR-5
NCI/ADR-RES = test: as above
786-0 = test: panel of 60 human tumor cell lines, growth inhibition (Renal Cancer); settings: 786-0
DU-145 = test: panel of 60 human tumor cell lines, growth inhibition (Prostate Cancer); settings: DU-145
SF-268 = test: panel of 60 human tumor cell lines, growth inhibition (CNS Cancer); settings: SF-268
SW-620 = test: panel of 60 human tumor cell lines, growth inhibition (Colon Cancer); settings: SW-620
U251 = test: panel of 60 human tumor cell lines, growth inhibition (CNS Cancer); settings: U251

C=C1C(=O)O[C@H]2[C@H]1CC/C(COC(=O)NCCO)=C\CC[C@@]1(C)O[C@@H]21 [JVM 2-50]
Percent Growth (HOP-62; Log10 Concentration −4.0): 9%
Percent Growth (HOP-62; Log10 Concentration −5.0): 88%
Percent Growth (HOP-62; Log10 Concentration −6.0): 92%
Percent Growth (HOP-62; Log10 Concentration −7.0): 90%
Percent Growth (HOP-62; Log10 Concentration −8.0): 88%
GI50 (HOP-62; NCI five dose): 30.4 µM
TGI (HOP-62; NCI five dose): >1.00E−4
Percent Growth (SF-295; Log10 Concentration −4.0): 44%
Percent Growth (SF-295; Log10 Concentration −5.0): 92%
Percent Growth (SF-295; Log10 Concentration −6.0): 95%
Percent Growth (SF-295; Log10 Concentration −7.0): 90%
Percent Growth (SF-295; Log10 Concentration −8.0): 88%
GI50 (SF-295; NCI five dose): 73.7 µM
TGI (SF-295; NCI five dose): 1.06E−4
Percent Growth (PC-3; Log10 Concentration −4.0): −21%
Percent Growth (PC-3; Log10 Concentration −5.0): 94%
Percent Growth (PC-3; Log10 Concentration −6.0): 97%
Percent Growth (PC-3; Log10 Concentration −7.0): 93%
Percent Growth (PC-3; Log10 Concentration −8.0): 98%
GI50 (PC-3; NCI five dose): 24.1 µM
TGI (PC-3; NCI five dose): 6.57E−5
Percent Growth (LOX IMVI; Log10 Concentration −4.0): −88%
Percent Growth (LOX IMVI; Log10 Concentration −5.0): 67%
Percent Growth (LOX IMVI; Log10 Concentration −6.0): 98%
Percent Growth (LOX IMVI; Log10 Concentration −7.0): 102%
Percent Growth (LOX IMVI; Log10 Concentration −8.0): 100%
GI50 (LOX IMVI; NCI five dose): 12.9 µM
TGI (LOX IMVI; NCI five dose): 2.72E−5
Percent Growth (COLO 205; Log10 Concentration −4.0): −80%
Percent Growth (COLO 205; Log10 Concentration −5.0): 21%
Percent Growth (COLO 205; Log10 Concentration −6.0): 108%
Percent Growth (COLO 205; Log10 Concentration −7.0): 106%
Percent Growth (COLO 205; Log10 Concentration −8.0): 96%
GI50 (COLO 205; NCI five dose): 4.87 µM
TGI (COLO 205; NCI five dose): 1.62E−5
Percent Growth (HS 578T; Log10 Concentration −4.0): 22%
Percent Growth (HS 578T; Log10 Concentration −5.0): 82%
Percent Growth (HS 578T; Log10 Concentration −6.0): 91%
Percent Growth (HS 578T; Log10 Concentration −7.0): 88%
Percent Growth (HS 578T; Log10 Concentration −8.0): 92%
GI50 (HS 578T; NCI five dose): 34.3 µM
TGI (HS 578T; NCI five dose): >1.00E−4
Percent Growth (A498; Log10 Concentration −4.0): −25%
Percent Growth (A498; Log10 Concentration −5.0): 58%
Percent Growth (A498; Log10 Concentration −6.0): 60%
Percent Growth (A498; Log10 Concentration −7.0): 68%
Percent Growth (A498; Log10 Concentration −8.0): 74%
GI50 (A498; NCI five dose): 12.4 µM
TGI (A498; NCI five dose): 5.01E−5
Percent Growth (NCI-H522; Log10 Concentration −4.0): −69%
Percent Growth (NCI-H522; Log10 Concentration −5.0): −56%
Percent Growth (NCI-H522; Log10 Concentration −6.0): 97%
Percent Growth (NCI-H522; Log10 Concentration −7.0): 104%
Percent Growth (NCI-H522; Log10 Concentration −8.0): 98%
GI50 (NCI-H522; NCI five dose): 2.03 µM
TGI (NCI-H522; NCI five dose): 4.30E−6
Percent Growth (M14; Log10 Concentration −4.0): −57%
Percent Growth (M14; Log10 Concentration −5.0): 56%
Percent Growth (M14; Log10 Concentration −6.0): 92%
Percent Growth (M14; Log10 Concentration −7.0): 97%
Percent Growth (M14; Log10 Concentration −8.0): 91%
GI50 (M14; NCI five dose): 11.2 µM
TGI (M14; NCI five dose): 3.11E−5
Percent Growth (CAKI-1; Log10 Concentration −4.0): −65%
Percent Growth (CAKI-1; Log10 Concentration −5.0): 48%
Percent Growth (CAKI-1; Log10 Concentration −6.0): 87%
Percent Growth (CAKI-1; Log10 Concentration −7.0): 91%
Percent Growth (CAKI-1; Log10 Concentration −8.0): 89%
GI50 (CAKI-1; NCI five dose): 8.99 µM
TGI (CAKI-1; NCI five dose): 2.67E−5
Percent Growth (NCI-H226; Log10 Concentration −4.0): −37%
Percent Growth (NCI-H226; Log10 Concentration −5.0): 67%
Percent Growth (NCI-H226; Log10 Concentration −6.0): 91%
Percent Growth (NCI-H226; Log10 Concentration −7.0): 96%
Percent Growth (NCI-H226; Log10 Concentration −8.0): 93%
GI50 (NCI-H226; NCI five dose): 14.6 µM
TGI (NCI-H226; NCI five dose): 4.43E−5
Percent Growth (K-562; Log10 Concentration −4.0): −25%
Percent Growth (K-562; Log10 Concentration −5.0): 23%
Percent Growth (K-562; Log10 Concentration −6.0): 100%
Percent Growth (K-562; Log10 Concentration −7.0): 110%
Percent Growth (K-562; Log10 Concentration −8.0): 119%
GI50 (K-562; NCI five dose): 4.51 µM
TGI (K-562; NCI five dose): 3.02E−5
Percent Growth (OVCAR-5; Log10 Concentration −4.0): −54%
Percent Growth (OVCAR-5; Log10 Concentration −5.0): 68%
Percent Growth (OVCAR-5; Log10 Concentration −6.0): 85%
Percent Growth (OVCAR-5; Log10 Concentration −7.0): 91%
Percent Growth (OVCAR-5; Log10 Concentration −8.0): 89%
GI50 (OVCAR-5; NCI five dose): 14 µM
TGI (OVCAR-5; NCI five dose): 1.59E−5
Percent Growth (NCI/ADR-RES; Log10 Concentration −4.0): 16%
Percent Growth (NCI/ADR-RES; Log10 Concentration −5.0): 105%
Percent Growth (NCI/ADR-RES; Log10 Concentration −6.0): 106%
Percent Growth (NCI/ADR-RES; Log10 Concentration −7.0): 113%
Percent Growth (NCI/ADR-RES; Log10 Concentration −8.0): 108%
GI50 (NCI/ADR-RES; NCI five dose): 41.5 µM
TGI (NCI/ADR-RES; NCI five dose): >1.00E−4
Percent Growth (786-0; Log10 Concentration −4.0): −74%
Percent Growth (786-0; Log10 Concentration −5.0): 59%
Percent Growth (786-0; Log10 Concentration −6.0): 97%
Percent Growth (786-0; Log10 Concentration −7.0): 97%
Percent Growth (786-0; Log10 Concentration −8.0): 91%
GI50 (786-0; NCI five dose): 11.7 µM
TGI (786-0; NCI five dose): 2.78E−5
Percent Growth (DU-145; Log10 Concentration −4.0): −92%
Percent Growth (DU-145; Log10 Concentration −5.0): 60%
Percent Growth (DU-145; Log10 Concentration −6.0): 107%
Percent Growth (DU-145; Log10 Concentration −7.0): 106%
Percent Growth (DU-145; Log10 Concentration −8.0): 108%
GI50 (DU-145; NCI five dose): 11.6 µM
TGI (DU-145; NCI five dose): 2.47E−5
Percent Growth (SF-268; Log10 Concentration −4.0): −51%
Percent Growth (SF-268; Log10 Concentration −5.0): 90%
Percent Growth (SF-268; Log10 Concentration −6.0): 100%
Percent Growth (SF-268; Log10 Concentration −7.0): 99%
Percent Growth (SF-268; Log10 Concentration −8.0): 99%
GI50 (SF-268; NCI five dose): 19.3 µM
TGI (SF-268; NCI five dose): 4.38E−5
Percent Growth (SW-620; Log10 Concentration −4.0): −71%
Percent Growth (SW-620; Log10 Concentration −5.0): 93%
Percent Growth (SW-620; Log10 Concentration −6.0): 101%
Percent Growth (SW-620; Log10 Concentration −7.0): 104%
Percent Growth (SW-620; Log10 Concentration −8.0): 102%
GI50 (SW-620; NCI five dose): 18.2 µM
TGI (SW-620; NCI five dose): 3.67E−5
Percent Growth (U251; Log10 Concentration −4.0): −26%
Percent Growth (U251; Log10 Concentration −5.0): 94%
Percent Growth (U251; Log10 Concentration −6.0): 91%
Percent Growth (U251; Log10 Concentration −7.0): 95%
Percent Growth (U251; Log10 Concentration −8.0): 97%
GI50 (U251; NCI five dose): 23.3 µM
TGI (U251; NCI five dose): 6.08E−5
